Assay results taken from US20050009772A1, “Methods and compositions for the treatment of glaucoma and other retinal diseases” (The Regents of the University of California, priority 2003, published 2005).
Entries after “also recorded” stand apart in the source; their conditions may differ.

How the values were obtained:
[1] = test system: TUNEL positive cells in the RGCL; assay: TUNEL analysis of RGCL after 1 week of IOP elevation (Experiment 3); format: in vivo, rat
Method: Experiment 3 was performed to investigate the inhibition of apoptosis with GGA administration after 1 week of IOP elevation (n=56).
Rats were anesthetized with intramuscular injections of 0.8 ml/kg of the anesthetic cocktail described above. […] At the end of the procedure, Tobrex ophthalmic ointment (tobramycin 0.3%; Alcon, Fort Worth, Tex.) was applied topically. Five days after intracameral injection of India ink, a dark band at the limbus was noted due to the aggregation of carbon particles in the trabecular meshwork.38 After anesthesia, approximately 200 laser burns were delivered ab externo to the pigmented trabecular band at laser settings of 200 μm diameter, 200 mW power and 0.2 seconds duration. Three weeks after the first laser treatment, another trabecular laser photocoagulation was performed without further injection of ink.
Four-μm thick paraffin embedded sections along the vertical meridian of the optic nerve head were collected and a minimum of 6 retinal sections (8 μm apart) per eyeball was used for counting the number of TUNEL positive cells in the RGCL. Only full length and undamaged retinal sections without oblique orientation were used. The procedures described in the ApopTag Peroxidase In Situ Apoptosis Detection Kit (Intergen Co., Purchase, N.Y.) were followed and diaminobenzidine (Sigma, St. Louis, Mo.) was used as a color substrate. Counting was performed by two masked investigators with light microscopy, and averaged.

HSP72 = assay: Immunohistochemical staining for HSP72 on retinal sections after GGA administration (Experiment 1); format: in vivo, rat
Method: (§1) Three experiments are summarized here, and details are provided in the subsequent sections. […] For Western blotting, twelve rats were equally divided into 6 groups. […] Enriched RGC fraction was harvested from 2 retinas of each group and used for Western blot analysis. The same experiment for isolation of RGCs and Western blotting was repeated with the other 2 retinas-from each group.
Animals were deeply anesthetized with intramuscular injections of 0.8 ml/kg of a cocktail of 5 ml ketamine (100 mg/ml), 2.5 ml xylazine (20 mg/ml), 1.0 ml acepromazine (10 mg/ml), and 1.5 ml normal saline. Then they were transcardially perfused with 4% paraformaldehyde in 0.1 M phosphate buffer. The enucleated eyeballs were immersed in fixative for 1 hour, bisected and post-fixed overnight. The eyes were embedded in paraffin and sectioned at a four-μm thickness along the vertical meridian through the optic nerve head. After deparaffinization and hydration, a species-specific Vectastain ABC kit (Vector Laboratories, Inc., Burlingame, Calif.) was chosen to match the species of primary antibody and the manufacturer's procedures were followed. The tissue sections were incubated with blocking serum solution in PBS for 1 hour. This was followed by incubation with primary antibody at 4° C overnight. The antibodies were mouse monoclonal antibody against HSP72 (1:500; StressGen Biotechnologies Corp., Victoria, British Columbia, Canada), goat polyclonal antibody against HSP72 (1:1000; Santa Cruz Biotechnology, Inc., Santa Cruz, Calif.) or rat monoclonal antibody against HSC70 (1:200; StressGen). Antigen-antibody complexes were detected by an avidin-biotin-peroxidase technique (Vectastain ABC Kit; Vector Laboratories). Diaminobenzidine (DAB) was used to produce a brown color in the target tissue and the slides were permanently mounted. As a negative control, alternate retinal section was incubated with blocking solution by replacing the primary antibody or with anti-rabbit secondary antibody by replacing the original secondary antibody.

HSC70 = assay: Western blot for HSC70 in enriched RGC fraction after systemic administration of GGA (Experiment 1); format: in vivo, rat; details: GGA 200 mg/kg daily i.p. 1, 3, 7 days vs control groups
Method: as §1
GGA was a gift from Esai Co, Ltd (Tokyo, Japan). […] Saline-vehicle was prepared and administered in the same fashion in vehicle-treated control groups.
A previously described method was modified to partially purify RGCs from other retinal cells in rat retinas.38 Briefly, two dissected rat retinas from each subgroup were washed in 2.5 ml of calcium- and magnesium-free phosphate buffered saline (PBS) at pH 7.4, and incubated in 1.25 ml of PBS containing 0.5 mg/ml trypsin and 0.01% deoxyribonuclease for 15 minutes at 37° C. […] The cells were then resuspended in 400 μl of MEM buffer, and the protein concentration in the cell suspension was measured with a bicinchoninic acid (BCA) protein assay kit (Pierce, Rockford, Ill.).
The membrane was blocked by incubation in 0.1% Tween-20 in 100 mM Tris-buffered saline containing 10% nonfat dried milk for 1 hour. […] The immunoreactive bands were detected by chemiluminescence with an enhanced chemiluminescence Western blot reagent (Amersham Pharmacia).

[2] = test system: cells in the retinal ganglion cell layer (RGCL); assay: Counting of cresyl violet-stained cells in the RGCL in rat glaucoma model (Experiment 2); format: in vivo
Method: GGA was then given twice a week at the same dose until euthanasia. Sustained elevation of intraocular pressure (IOP) was maintained by performing trabecular laser photocoagulation three weeks after the first photocoagulation. […] IOP and body weight were measured once a week. After 5 weeks of IOP elevation, the number of retrogradely labeled RGCs with dextran tetramethylrhodamine (DTMR) was counted (n=53). The grading of optic nerve injury and the counting of cresyl violet-stained cells in the retinal ganglion cell layer (RGCL) was also performed (n=54).
Rats were anesthetized with intramuscular injections of 0.8 ml/kg of the anesthetic cocktail described above. A previously published procedure was modified to produce chronic moderately elevated IOP unilaterally, while the untreated contralateral eye served as the comparative control.40 Animals were injected intracamerally with 10 μl of 35% India ink (Becton Dickinson, Cockeysville, Md.) in 0.01 M PBS after removing a similar volume of aqueous. At the end of the procedure, Tobrex ophthalmic ointment (tobramycin 0.3%; Alcon, Fort Worth, Tex.) was applied topically. Five days after intracameral injection of India ink, a dark band at the limbus was noted due to the aggregation of carbon particles in the trabecular meshwork.38 After anesthesia, approximately 200 laser burns were delivered ab externo to the pigmented trabecular band at laser settings of 200 μm diameter, 200 mW power and 0.2 seconds duration. Three weeks after the first laser treatment, another trabecular laser photocoagulation was performed without further injection of ink.
Corresponding loss of cells from the RGCL was evaluated by counting cells in the RGCL in cresyl violet-stained retinas. After collecting the optic nerves, enucleated eyeballs were postfixed in 10% neutral buffered formalin for 1 hour and washed in 0.1 M phosphate buffer (pH 7.4). The retinas were dissected and flat mounted on a slide, vitreal side up. Four radial cuts were made in the peripheral retinas. The specimens were dried overnight, stained with 1% cresyl violet, dehydrated, and covered with coverslips. Morphologically distinguishable glial cells and vascular endothelial cells were not counted. Cells with cytoplasm rich in Nissl substance and with irregular outlines were counted as neurons.43 The numbers of neurons in the RGCL in regions 1 mm (posterior), 2 mm (mid-peripheral) and 3 mm (peripheral) from the center of the optic nerve head were taken with an eye-piece reticule of a microscope at 400× magnification. The counting was performed by two investigators in a masked fashion and averaged.

## Geranylgeranylacetone [GGA]
[1]; 1 week of IOP elevation
  inhibition of cell death: 57%
  number of TUNEL positive cells in the RGCL: 0.53±0.11 per retinal section
[1]; elevated IOP retinas, 1 week, quercetin = co-administered with GGA
  effect on number of TUNEL positive cells (in words): significantly reduced
HSP72; GGA i.p. 7 days
  immunoreactivity of HSP72 in other retinal layers: No remarkable change
HSP72; GGA i.p. 7 days vs vehicle-treated
  immunoreactivity of HSP72 in cells in the RGCL (immunohistochemical staining): Increased immunoreactivity of HSP72
HSP72; oral daily dose of GGA for one week, assayed one week after last oral administration
  levels of HSP72 in RGCs (immunohistochemical staining): increased levels of HSP72
HSC70
  immunoreactivity against HSC70 in RGCs (immunoblot): no change in HSC70 expression; also recorded: no detectable difference
[2]; 5 weeks of elevated IOP
  cells in the RGCL (cresyl violet): 2697±70 cells/mm2
  effect on loss of cells in the RGCL (in words): inhibited the loss of cells
[2]; contralateral control retinas
  cells in the RGCL (cresyl violet): 2644±59 cells/mm2
  effect on number of cells in the RGCL (in words): no significant effect
